Experimental data from ChEMBL document CHEMBL4507276 (2021).

What was measured:
[1] = biological target: Insulin receptor (Homo sapiens) (UniProt P06213); test: INSR Invitrogen selectivity data (BI); conditions: Compound concentration 3.0 uM
[2] = biological target: D(2) dopamine receptor (Homo sapiens) (UniProt P14416); test: D2SH_AGON Cerep selectivity data (BI); conditions: filed as agonist, Compound concentration 20.0 uM
[3] = biological target: Dual specificity protein kinase CLK1 (Homo sapiens) (UniProt P49759); test: CLK1 Invitrogen selectivity data (BI); conditions: Compound concentration 3.0 uM
[4] = biological target: Cyclin-dependent kinase 5/CDK5 activator 1 (Homo sapiens) (UniProt Q00535+Q15078); test: CDK5/P25 Invitrogen selectivity data (BI); assay type: protein-complex assay; conditions: Compound concentration 3.0 uM
Cyclin-dependent kinase 5/CDK5 activator 1 (Homo sapiens), sequence (Q00535 whole entry): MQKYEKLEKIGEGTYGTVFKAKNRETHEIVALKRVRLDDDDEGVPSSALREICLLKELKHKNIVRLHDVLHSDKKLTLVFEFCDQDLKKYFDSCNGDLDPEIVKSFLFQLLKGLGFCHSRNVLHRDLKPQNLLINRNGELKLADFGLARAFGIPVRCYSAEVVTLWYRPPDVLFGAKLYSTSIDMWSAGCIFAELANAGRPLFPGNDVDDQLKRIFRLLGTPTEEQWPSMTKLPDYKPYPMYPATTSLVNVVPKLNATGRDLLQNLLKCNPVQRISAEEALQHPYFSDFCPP
Cyclin-dependent kinase 5/CDK5 activator 1 (Homo sapiens), sequence (Q15078 99-307 partner limits assumed): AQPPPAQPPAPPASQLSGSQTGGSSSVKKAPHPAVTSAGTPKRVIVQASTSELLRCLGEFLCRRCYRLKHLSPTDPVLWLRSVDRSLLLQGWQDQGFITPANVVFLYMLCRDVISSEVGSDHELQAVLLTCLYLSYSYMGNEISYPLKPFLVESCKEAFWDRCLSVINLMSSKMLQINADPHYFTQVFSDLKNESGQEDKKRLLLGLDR

[5] = biological target: T1, Serine/threonine-protein kinase Chk1 (Homo sapiens) (UniProt O14757); test: CHEK1 Invitrogen selectivity data (BI); conditions: Compound concentration 3.0 uM
T1 sequence (whole entry): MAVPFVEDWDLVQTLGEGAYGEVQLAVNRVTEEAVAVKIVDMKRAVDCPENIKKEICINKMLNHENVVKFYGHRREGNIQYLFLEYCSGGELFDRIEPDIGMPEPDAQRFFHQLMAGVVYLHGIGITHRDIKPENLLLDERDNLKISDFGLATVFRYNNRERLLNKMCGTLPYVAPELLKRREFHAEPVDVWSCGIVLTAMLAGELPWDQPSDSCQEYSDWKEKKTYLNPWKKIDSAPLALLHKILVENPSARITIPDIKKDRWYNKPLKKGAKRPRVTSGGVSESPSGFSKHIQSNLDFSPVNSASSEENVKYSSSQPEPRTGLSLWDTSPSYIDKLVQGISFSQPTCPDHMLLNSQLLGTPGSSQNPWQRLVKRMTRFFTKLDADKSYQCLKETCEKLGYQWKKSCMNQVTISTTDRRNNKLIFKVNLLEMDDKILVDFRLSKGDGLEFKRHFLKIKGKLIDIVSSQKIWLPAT

[6] = system: Tyrosine-protein kinase ABL1 (Homo sapiens), P00519 [G250E]; test: ABL1 G250E Invitrogen selectivity data (BI); conditions: Compound concentration 3.0 uM
[7] = biological target: MAP kinase-activated protein kinase 3 (Homo sapiens) (UniProt Q16644); test: MAPKAPK3 Invitrogen selectivity data (BI); conditions: Compound concentration 3.0 uM
MAP kinase-activated protein kinase 3 (Homo sapiens), sequence (Q16644 whole entry, looked up): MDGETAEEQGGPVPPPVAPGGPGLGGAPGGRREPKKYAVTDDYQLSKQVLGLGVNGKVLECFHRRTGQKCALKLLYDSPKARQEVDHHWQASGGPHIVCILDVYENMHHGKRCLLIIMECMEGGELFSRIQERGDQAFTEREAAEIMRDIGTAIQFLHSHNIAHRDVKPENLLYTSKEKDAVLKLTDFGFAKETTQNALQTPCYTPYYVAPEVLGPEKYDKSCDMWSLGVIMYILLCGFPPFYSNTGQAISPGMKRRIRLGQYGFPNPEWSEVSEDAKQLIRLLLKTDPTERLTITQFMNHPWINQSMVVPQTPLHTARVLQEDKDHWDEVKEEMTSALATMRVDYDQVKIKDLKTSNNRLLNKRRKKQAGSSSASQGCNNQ

[8] = biological target: Somatostatin receptor type 4 (Homo sapiens) (UniProt P31391); test: SST4_HU Cerep selectivity data (BI); conditions: Compound concentration 20.0 uM
Somatostatin receptor type 4 (Homo sapiens), sequence (P31391 whole entry): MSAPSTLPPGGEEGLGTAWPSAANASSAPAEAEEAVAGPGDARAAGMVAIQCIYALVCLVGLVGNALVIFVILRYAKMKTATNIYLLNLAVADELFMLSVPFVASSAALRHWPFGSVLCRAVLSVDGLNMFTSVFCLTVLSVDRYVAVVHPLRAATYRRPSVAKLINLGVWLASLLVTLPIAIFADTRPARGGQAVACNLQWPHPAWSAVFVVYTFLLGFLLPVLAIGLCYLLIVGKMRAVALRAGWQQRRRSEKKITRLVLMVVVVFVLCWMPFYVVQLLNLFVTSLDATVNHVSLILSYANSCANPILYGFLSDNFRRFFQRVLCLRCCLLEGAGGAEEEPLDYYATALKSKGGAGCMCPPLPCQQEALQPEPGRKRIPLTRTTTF

[9] = biological target: T2, Mitogen-activated protein kinase kinase kinase 2 (Homo sapiens) (UniProt Q9Y2U5); test: MAP3K2 Invitrogen selectivity data (BI); conditions: Compound concentration 3.0 uM
T2 sequence (whole entry): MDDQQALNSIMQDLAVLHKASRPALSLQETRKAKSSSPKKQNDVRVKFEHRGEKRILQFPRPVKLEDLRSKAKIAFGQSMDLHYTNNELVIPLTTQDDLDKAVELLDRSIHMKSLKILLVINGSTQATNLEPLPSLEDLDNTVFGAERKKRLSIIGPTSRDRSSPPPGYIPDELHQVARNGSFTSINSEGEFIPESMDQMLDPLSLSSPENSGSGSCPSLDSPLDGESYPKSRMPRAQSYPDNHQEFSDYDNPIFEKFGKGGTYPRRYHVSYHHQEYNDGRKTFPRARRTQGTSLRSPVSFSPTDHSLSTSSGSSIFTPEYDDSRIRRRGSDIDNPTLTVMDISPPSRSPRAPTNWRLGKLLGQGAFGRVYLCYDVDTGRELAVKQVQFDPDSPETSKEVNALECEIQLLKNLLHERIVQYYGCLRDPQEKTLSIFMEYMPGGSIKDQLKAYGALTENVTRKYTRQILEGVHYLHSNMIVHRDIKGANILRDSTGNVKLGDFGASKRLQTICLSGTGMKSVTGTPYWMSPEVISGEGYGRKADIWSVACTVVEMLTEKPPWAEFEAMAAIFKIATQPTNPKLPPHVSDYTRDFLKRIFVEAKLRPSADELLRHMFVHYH

[10] = biological target: High affinity nerve growth factor receptor (Homo sapiens) (UniProt P04629); test: NTRK1 Invitrogen selectivity data (BI); conditions: Compound concentration 3.0 uM
[11] = biological target: T3, Megakaryocyte-associated tyrosine-protein kinase (Homo sapiens) (UniProt P42679); test: MATK Invitrogen selectivity data (BI); conditions: Compound concentration 3.0 uM
T3 sequence (whole entry): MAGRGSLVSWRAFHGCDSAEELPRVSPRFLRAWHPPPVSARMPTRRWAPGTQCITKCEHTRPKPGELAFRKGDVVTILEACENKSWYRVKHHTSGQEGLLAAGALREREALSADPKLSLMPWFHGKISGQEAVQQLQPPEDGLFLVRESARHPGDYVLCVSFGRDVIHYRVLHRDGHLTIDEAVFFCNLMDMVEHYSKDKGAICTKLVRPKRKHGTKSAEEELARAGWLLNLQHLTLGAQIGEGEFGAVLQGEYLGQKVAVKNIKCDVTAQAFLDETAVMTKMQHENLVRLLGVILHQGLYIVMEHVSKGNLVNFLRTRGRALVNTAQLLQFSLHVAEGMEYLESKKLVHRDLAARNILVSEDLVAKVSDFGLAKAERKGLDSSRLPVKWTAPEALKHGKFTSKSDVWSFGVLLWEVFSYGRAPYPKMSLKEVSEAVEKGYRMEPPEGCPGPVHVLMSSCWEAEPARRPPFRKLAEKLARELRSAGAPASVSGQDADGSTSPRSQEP

[12] = biological target: Protein kinase C zeta type (Homo sapiens) (UniProt Q05513); test: PRKCZ Invitrogen selectivity data (BI); conditions: Compound concentration 3.0 uM
Protein kinase C zeta type (Homo sapiens), sequence (Q05513 whole entry): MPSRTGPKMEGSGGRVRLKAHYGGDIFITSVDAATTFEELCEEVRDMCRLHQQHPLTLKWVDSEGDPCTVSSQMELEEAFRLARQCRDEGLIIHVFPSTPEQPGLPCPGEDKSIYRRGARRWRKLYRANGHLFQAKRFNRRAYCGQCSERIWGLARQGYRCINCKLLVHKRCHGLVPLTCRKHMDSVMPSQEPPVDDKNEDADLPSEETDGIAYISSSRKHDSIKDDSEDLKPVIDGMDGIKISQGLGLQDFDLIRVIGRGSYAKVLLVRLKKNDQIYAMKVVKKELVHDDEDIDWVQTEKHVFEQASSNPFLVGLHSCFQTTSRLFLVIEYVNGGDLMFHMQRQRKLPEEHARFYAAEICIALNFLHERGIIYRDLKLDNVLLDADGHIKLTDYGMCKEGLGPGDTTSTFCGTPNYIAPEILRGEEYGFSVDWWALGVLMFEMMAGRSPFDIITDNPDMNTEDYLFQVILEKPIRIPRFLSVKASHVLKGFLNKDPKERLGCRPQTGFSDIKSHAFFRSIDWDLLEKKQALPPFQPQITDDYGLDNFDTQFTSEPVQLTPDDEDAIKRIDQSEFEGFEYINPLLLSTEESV

[13] = biological target: T4, 5-hydroxytryptamine receptor 1A (Homo sapiens) (UniProt P08908); test: 5HT1A/HU Eurofins-Panlabs selectivity data (BI); conditions: Compound concentration 10.0 uM
T4 sequence (whole entry): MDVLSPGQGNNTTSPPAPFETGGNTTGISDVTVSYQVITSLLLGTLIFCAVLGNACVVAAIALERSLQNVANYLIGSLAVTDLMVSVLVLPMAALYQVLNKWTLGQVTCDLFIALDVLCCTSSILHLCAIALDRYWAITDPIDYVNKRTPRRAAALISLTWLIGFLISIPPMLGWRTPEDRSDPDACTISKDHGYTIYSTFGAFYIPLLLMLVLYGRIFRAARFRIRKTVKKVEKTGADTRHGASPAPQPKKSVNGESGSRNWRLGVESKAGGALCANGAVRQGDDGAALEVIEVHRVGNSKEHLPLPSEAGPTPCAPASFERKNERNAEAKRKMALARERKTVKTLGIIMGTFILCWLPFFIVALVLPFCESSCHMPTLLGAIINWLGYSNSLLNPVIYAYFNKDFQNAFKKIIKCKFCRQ

[14] = biological target: Glutamate receptor ionotropic, NMDA 2A (Rattus norvegicus) (UniProt Q00959); test: NMDA/R Cerep selectivity data (BI); conditions: Compound concentration 20.0 uM
[15] = biological target: T4, 5-hydroxytryptamine receptor 1A (Homo sapiens); test: 5HT1A/H Cerep selectivity data (BI); conditions: Compound concentration 20.0 uM
[16] = biological target: 5-hydroxytryptamine receptor 2B (Homo sapiens) (UniProt P41595); test: 5HT2B/H AG Cerep selectivity data (BI); conditions: filed as agonist, Compound concentration 20.0 uM
[17] = biological target: Histamine H1 receptor (Homo sapiens) (UniProt P35367); test: H1/H Eurofins-Panlabs selectivity data (BI); conditions: Compound concentration 10.0 uM
[18] = biological target: Death-associated protein kinase 1 (Homo sapiens) (UniProt P53355); test: DAPK1 Invitrogen selectivity data (BI); conditions: Compound concentration 3.0 uM
Death-associated protein kinase 1 (Homo sapiens), sequence (P53355 whole entry, looked up): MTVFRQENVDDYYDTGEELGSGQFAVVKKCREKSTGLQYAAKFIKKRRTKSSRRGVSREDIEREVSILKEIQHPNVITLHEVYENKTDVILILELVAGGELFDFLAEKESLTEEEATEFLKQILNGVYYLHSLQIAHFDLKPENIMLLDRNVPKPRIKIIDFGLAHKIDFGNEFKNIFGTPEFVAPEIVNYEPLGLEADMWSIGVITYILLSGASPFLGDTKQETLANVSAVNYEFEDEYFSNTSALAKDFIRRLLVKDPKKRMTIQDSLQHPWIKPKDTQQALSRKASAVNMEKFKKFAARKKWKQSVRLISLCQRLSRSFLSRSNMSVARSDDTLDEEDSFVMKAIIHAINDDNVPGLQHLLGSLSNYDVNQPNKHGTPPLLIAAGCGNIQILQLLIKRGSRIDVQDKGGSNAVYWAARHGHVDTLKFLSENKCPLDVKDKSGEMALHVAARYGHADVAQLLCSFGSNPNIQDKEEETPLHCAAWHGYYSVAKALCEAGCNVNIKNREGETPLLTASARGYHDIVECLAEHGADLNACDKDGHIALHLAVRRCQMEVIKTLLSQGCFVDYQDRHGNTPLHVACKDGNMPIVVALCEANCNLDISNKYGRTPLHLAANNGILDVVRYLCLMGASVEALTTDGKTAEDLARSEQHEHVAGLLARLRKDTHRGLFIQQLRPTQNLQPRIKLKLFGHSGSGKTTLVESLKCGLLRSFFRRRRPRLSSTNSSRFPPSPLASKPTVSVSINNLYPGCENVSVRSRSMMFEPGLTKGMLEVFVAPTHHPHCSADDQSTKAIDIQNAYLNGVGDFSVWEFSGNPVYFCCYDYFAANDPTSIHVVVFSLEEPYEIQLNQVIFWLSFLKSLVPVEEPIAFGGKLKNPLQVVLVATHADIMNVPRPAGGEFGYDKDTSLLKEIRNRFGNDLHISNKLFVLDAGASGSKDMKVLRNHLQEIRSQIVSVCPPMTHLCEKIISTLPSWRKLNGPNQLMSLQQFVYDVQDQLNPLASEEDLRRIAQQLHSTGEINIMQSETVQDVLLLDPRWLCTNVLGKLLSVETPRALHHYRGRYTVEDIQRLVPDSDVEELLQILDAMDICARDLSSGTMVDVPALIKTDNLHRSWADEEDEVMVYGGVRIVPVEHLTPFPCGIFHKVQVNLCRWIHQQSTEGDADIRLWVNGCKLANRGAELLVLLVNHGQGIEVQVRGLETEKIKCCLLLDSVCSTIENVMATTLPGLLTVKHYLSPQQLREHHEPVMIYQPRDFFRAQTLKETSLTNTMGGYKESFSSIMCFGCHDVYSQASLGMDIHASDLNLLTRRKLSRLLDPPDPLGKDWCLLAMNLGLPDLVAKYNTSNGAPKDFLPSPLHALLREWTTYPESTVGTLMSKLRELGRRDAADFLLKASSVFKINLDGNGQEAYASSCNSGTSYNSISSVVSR

[19] = biological target: Rho-associated protein kinase 2 (Homo sapiens) (UniProt O75116); test: ROCK2 Invitrogen selectivity data (BI); conditions: Compound concentration 3.0 uM

Measured: residual activity

Insulin receptor (Homo sapiens), sequence (P06213 28-758 limits assumed): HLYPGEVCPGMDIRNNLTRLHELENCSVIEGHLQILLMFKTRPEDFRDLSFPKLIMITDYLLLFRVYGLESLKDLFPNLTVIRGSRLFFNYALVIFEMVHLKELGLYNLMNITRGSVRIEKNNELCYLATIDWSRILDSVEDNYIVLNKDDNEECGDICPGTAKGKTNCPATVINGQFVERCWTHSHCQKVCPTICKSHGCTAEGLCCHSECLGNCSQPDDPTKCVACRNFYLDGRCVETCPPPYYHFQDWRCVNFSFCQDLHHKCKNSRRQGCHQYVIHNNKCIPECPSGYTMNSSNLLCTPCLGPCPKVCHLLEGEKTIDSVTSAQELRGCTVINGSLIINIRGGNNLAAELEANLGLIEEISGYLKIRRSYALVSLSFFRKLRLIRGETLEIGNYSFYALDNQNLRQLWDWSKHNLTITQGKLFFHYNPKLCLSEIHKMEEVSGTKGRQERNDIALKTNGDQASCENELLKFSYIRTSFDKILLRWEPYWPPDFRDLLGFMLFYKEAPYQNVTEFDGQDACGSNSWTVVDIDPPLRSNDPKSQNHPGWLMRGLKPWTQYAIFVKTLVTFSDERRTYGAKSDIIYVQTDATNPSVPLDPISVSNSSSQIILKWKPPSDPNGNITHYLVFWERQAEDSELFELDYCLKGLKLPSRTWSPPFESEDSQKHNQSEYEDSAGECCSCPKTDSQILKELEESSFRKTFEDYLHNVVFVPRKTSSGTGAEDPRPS
Insulin receptor (Homo sapiens), sequence (P06213 763-1382 limits assumed): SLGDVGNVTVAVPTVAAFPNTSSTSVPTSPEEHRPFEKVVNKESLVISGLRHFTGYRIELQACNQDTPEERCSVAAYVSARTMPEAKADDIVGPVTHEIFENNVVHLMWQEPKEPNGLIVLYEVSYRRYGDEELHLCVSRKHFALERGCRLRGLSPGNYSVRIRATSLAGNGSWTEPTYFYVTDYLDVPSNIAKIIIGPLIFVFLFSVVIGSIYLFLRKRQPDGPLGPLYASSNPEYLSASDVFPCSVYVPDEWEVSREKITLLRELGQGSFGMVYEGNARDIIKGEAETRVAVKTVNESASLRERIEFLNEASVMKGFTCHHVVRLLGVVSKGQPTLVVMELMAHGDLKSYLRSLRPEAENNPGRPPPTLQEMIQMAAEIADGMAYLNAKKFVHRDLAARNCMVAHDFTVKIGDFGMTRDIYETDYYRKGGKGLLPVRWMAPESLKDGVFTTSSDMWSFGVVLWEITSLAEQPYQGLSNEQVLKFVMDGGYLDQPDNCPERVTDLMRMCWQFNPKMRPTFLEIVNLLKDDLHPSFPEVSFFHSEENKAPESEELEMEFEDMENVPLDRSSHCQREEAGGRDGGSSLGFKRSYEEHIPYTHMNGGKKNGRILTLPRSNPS

CN(C)C(=O)Cn1cc(-c2nc([C@@](C)(c3ccc(-c4cnc(N)nc4)cc3)C3CC3)no2)cn1 [BI 665915]
inactive: [1] 100% | [2] 95% | [3] 96.5% | [4] 100% | [5] 96% | [6] 80% | [7] 98.5% | [8] 146% | [9] 97% | [10] 95.5% | [11] 97.5% | [12] 100% | [13] 127% | [14] 90% | [15] 77% | [16] 103% | [17] 103% | [18] 99.5% | [19] 102%
